The source of these data is article PMC5295379, “Acquired savolitinib resistance in non-small cell lung cancer arises via multiple mechanisms that converge on MET-independent mTOR and MYC activation” (Oncotarget, 2016).

This experiment concerns the target MET (Homo sapiens, UniProt P08581). In words: pMET (Y1234/[…]) immunoblot densitometry in MET-amplified H1993 and EBC-1 cells, […] h dose response. Format: cell-based. On the technique in general: A western blot detects proteins with antibodies after separation by electrophoresis.

Sequence of MET (P08581 25-307): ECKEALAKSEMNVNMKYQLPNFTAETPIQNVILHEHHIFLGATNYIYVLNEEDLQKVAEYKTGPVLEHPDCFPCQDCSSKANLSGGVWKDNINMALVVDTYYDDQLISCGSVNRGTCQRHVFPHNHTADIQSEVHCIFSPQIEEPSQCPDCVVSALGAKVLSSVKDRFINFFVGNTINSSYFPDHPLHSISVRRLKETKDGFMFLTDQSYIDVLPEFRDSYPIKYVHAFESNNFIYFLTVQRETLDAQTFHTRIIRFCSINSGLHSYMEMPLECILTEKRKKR
Sequence of MET (P08581 308-1390): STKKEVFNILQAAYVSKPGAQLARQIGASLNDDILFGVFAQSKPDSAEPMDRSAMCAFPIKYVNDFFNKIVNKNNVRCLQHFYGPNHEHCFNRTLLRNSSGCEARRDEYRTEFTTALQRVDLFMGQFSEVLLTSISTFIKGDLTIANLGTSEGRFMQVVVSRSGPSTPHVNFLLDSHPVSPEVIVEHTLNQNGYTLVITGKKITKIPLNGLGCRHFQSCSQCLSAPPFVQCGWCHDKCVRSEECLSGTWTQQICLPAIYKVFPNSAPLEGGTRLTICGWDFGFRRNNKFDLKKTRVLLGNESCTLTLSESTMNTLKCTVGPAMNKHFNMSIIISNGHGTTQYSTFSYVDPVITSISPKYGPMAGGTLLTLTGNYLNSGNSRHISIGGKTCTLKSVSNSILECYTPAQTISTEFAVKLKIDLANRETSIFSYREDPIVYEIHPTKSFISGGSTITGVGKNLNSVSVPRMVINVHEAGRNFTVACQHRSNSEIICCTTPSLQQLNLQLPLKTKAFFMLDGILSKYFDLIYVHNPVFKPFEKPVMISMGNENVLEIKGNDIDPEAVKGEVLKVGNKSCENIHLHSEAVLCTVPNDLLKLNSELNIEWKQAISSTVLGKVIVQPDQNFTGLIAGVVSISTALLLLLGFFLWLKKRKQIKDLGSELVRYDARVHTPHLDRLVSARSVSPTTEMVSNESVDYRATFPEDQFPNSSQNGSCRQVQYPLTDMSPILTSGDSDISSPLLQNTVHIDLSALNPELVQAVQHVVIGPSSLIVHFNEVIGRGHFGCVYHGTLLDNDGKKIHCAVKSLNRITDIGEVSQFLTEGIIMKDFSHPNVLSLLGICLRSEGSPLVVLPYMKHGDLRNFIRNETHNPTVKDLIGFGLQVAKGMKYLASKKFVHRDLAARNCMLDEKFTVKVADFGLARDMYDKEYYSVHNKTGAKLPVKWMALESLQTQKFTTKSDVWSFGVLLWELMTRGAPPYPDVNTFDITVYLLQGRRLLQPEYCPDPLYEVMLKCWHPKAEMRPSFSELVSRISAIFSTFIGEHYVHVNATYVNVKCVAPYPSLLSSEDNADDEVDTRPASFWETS

Turning to `C[C@@H](c1ccc2nccn2c1)n1nnc2ncc(-c3cnn(C)c3)nc21` [savolitinib, (S)-1-(1-(Imidazo[1,2-a]pyridin-6-yl)ethyl)-6-(1-methyl-1H-pyrazol-4-yl)-1H-[1,2, 3]triazolo[4,5-b]pyrazine], the IC50 (usually the point on the concentration scale where inhibition reaches its midpoint) turned out to be 4.12 nM.
